Reference: ChEMBL document CHEMBL1201862, “PubChem BioAssay data set” (2004)
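1) Cells in 96-well plates. 2) Compound, 48 h, 5 concentrations. 3) Linear interpolation between surrounding doses. 4) Unreached endpoint = highest concentration. GI50 is the concentration that inhibits growth by half.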 Calls of active or inactive are those of the source. No stated cut-off is given here; in the data, active = GI50 up to about 1.1 µM and inactive = higher.

Legend:
Experiment in all cases: NCI anticancer screen, dose series, 48 h
LOX IMVI = tested on: LOX IMVI
UACC-62 = tested on: UACC-62
MDA-MB-435 = tested on: MDA-MB-435
SR = tested on: SR
U-251 = tested on: U-251
OVCAR-4 = tested on: OVCAR-4
SF-268 = tested on: SF-268
OVCAR-5 = tested on: OVCAR-5
RPMI-8226 = tested on: RPMI-8226
NCI/ADR-RES = tested on: NCI/ADR-RES
MCF7 = tested on: MCF7
K562 = tested on: K562
UO-31 = tested on: UO-31
M14 = tested on: M14
OVCAR-3 = tested on: OVCAR-3
A549 = tested on: A549
SK-MEL-5 = tested on: SK-MEL-5
SNB-75 = tested on: SNB-75
NCI-H226 = tested on: NCI-H226
MDA-MB-231 = tested on: MDA-MB-231

SMILES | GI50 (LOX IMVI) | GI50 (UACC-62) | GI50 (MDA-MB-435) | GI50 (SR) | GI50 (U-251) | GI50 (OVCAR-4) | GI50 (SF-268) | GI50 (OVCAR-5) | GI50 (RPMI-8226) | GI50 (NCI/ADR-RES) | GI50 (MCF7) | GI50 (K562) | GI50 (UO-31) | GI50 (M14) | GI50 (OVCAR-3) | GI50 (A549) | GI50 (SK-MEL-5) | GI50 (SNB-75) | GI50 (NCI-H226) | GI50 (MDA-MB-231)
O=c1oc2ccc3ccccc3c2cc1-c1nnc(-c2ccc([N+](=O)[O-])cc2)[nH]1 | 38.8 µM (inactive) | > 100 µM (inactive) | > 100 µM (inactive) | > 100 µM (inactive) | 29.6 µM (inactive) | > 100 µM (inactive) | 0.0807 µM (active) | > 100 µM (inactive) | > 100 µM (inactive) | > 100 µM (inactive) | > 100 µM (inactive) | > 100 µM (inactive) | 53.1 µM (inactive) | > 100 µM (inactive) | > 100 µM (inactive) | > 100 µM (inactive) | > 100 µM (inactive) | – | – | –
CC1CN(c2ccc(Cl)cc2)CC(C)(C)OC(=O)O1 (stereo not drawn) | > 100 µM (inactive) | > 100 µM (inactive) | – | > 100 µM (inactive) | > 100 µM (inactive) | > 100 µM (inactive) | > 100 µM (inactive) | > 100 µM (inactive) | > 100 µM (inactive) | – | – | > 100 µM (inactive) | > 100 µM (inactive) | > 100 µM (inactive) | > 100 µM (inactive) | > 100 µM (inactive) | > 100 µM (inactive) | > 100 µM (inactive) | > 100 µM (inactive) | –
N/C(=N\c1ccc(Cl)cc1)NS(=O)(=O)c1ccc(-c2ccccn2)s1 | 17.5 µM (inactive) | 13.4 µM (inactive) | – | 14.5 µM (inactive) | 15 µM (inactive) | 11.5 µM (inactive) | 17.3 µM (inactive) | 21.4 µM (inactive) | 16.9 µM (inactive) | 18.1 µM (inactive) | 17.1 µM (inactive) | 15.4 µM (inactive) | 17.7 µM (inactive) | 17.8 µM (inactive) | 22.8 µM (inactive) | 19.1 µM (inactive) | 15.8 µM (inactive) | 21.8 µM (inactive) | 17.3 µM (inactive) | 14.2 µM (inactive)
CC(C)(C)C(=O)C(C(c1ccccc1)N1CCOCC1)N1CCOCC1 (stereo not drawn) | > 100 µM (inactive) | > 100 µM (inactive) | > 100 µM (inactive) | > 100 µM (inactive) | > 100 µM (inactive) | > 100 µM (inactive) | > 100 µM (inactive) | > 100 µM (inactive) | > 100 µM (inactive) | > 100 µM (inactive) | – | > 100 µM (inactive) | > 100 µM (inactive) | > 100 µM (inactive) | > 100 µM (inactive) | > 100 µM (inactive) | – | > 100 µM (inactive) | – | > 100 µM (inactive)
Cc1cc(C)cc(NC(N)=S)c1 | 29.1 µM (inactive) | > 100 µM (inactive) | – | 33.5 µM (inactive) | 38.6 µM (inactive) | > 100 µM (inactive) | 53.7 µM (inactive) | > 100 µM (inactive) | 31.1 µM (inactive) | – | – | > 100 µM (inactive) | > 100 µM (inactive) | > 100 µM (inactive) | > 100 µM (inactive) | > 100 µM (inactive) | > 100 µM (inactive) | > 100 µM (inactive) | > 100 µM (inactive) | –
Cc1c2c(c(C)c3c1[nH]c1ccccc13)CN(C)CC2 | 15.5 µM (inactive) | 18 µM (inactive) | – | 24.8 µM (inactive) | 12.1 µM (inactive) | 23.4 µM (inactive) | 20.3 µM (inactive) | 38.8 µM (inactive) | 26.4 µM (inactive) | – | – | 31.3 µM (inactive) | 19.5 µM (inactive) | 15.1 µM (inactive) | 18.7 µM (inactive) | 17.9 µM (inactive) | 13.3 µM (inactive) | 13.5 µM (inactive) | 19.1 µM (inactive) | –
COC(=O)CCCC1(CCCC(=O)OC)CCCCCCCCC(CCCC(=O)OC)(CCCC(=O)OC)C(=O)C1=O | 23 µM (inactive) | 13.6 µM (inactive) | 86.1 µM (inactive) | 20.4 µM (inactive) | 18.9 µM (inactive) | 17.3 µM (inactive) | 19.2 µM (inactive) | > 100 µM (inactive) | < 0.01 µM (active) | 40.2 µM (inactive) | 85.5 µM (inactive) | 4.78 µM (inactive) | 0.0502 µM (active) | 70.1 µM (inactive) | 22.9 µM (inactive) | 11.6 µM (inactive) | 53.1 µM (inactive) | 23.9 µM (inactive) | > 100 µM (inactive) | –
O=C(NN1C(=O)/C(=C/c2ccc(Cl)cc2)N=C1c1ccccc1)c1c(Cl)c(Cl)c(Cl)c(Cl)c1-c1nc2ccccc2[nH]1 | 8.79 µM (inactive) | 10.7 µM (inactive) | 2.8 µM (inactive) | 3.58 µM (inactive) | – | – | 14.6 µM (inactive) | 29.1 µM (inactive) | – | 15.3 µM (inactive) | 9.91 µM (inactive) | 4.28 µM (inactive) | 16.3 µM (inactive) | 17.3 µM (inactive) | 33 µM (inactive) | 5.98 µM (inactive) | 19.7 µM (inactive) | 12.2 µM (inactive) | 8 µM (inactive) | –
O=C(O)C1Cc2[nH]cnc2CN1 (stereo not drawn) | > 100 µM (inactive) | > 100 µM (inactive) | – | > 100 µM (inactive) | > 100 µM (inactive) | > 100 µM (inactive) | > 100 µM (inactive) | > 100 µM (inactive) | > 100 µM (inactive) | – | – | > 100 µM (inactive) | > 100 µM (inactive) | > 100 µM (inactive) | > 100 µM (inactive) | > 100 µM (inactive) | > 100 µM (inactive) | > 100 µM (inactive) | > 100 µM (inactive) | –
COc1cc(CC(C)N)ccc1O (stereo not drawn) | > 100 µM (inactive) | > 100 µM (inactive) | – | > 100 µM (inactive) | > 100 µM (inactive) | > 100 µM (inactive) | > 100 µM (inactive) | > 100 µM (inactive) | > 100 µM (inactive) | > 100 µM (inactive) | > 100 µM (inactive) | > 100 µM (inactive) | > 100 µM (inactive) | > 100 µM (inactive) | > 100 µM (inactive) | > 100 µM (inactive) | > 100 µM (inactive) | > 100 µM (inactive) | > 100 µM (inactive) | –
CCOP(=O)(C=C=C(C)C)OCC | > 100 µM (inactive) | > 100 µM (inactive) | > 100 µM (inactive) | > 100 µM (inactive) | > 100 µM (inactive) | > 100 µM (inactive) | > 100 µM (inactive) | > 100 µM (inactive) | – | > 100 µM (inactive) | > 100 µM (inactive) | > 100 µM (inactive) | – | > 100 µM (inactive) | > 100 µM (inactive) | > 100 µM (inactive) | > 100 µM (inactive) | > 100 µM (inactive) | > 100 µM (inactive) | –
O=C1C2C3CCC(C2C(=O)N1CO)C1C2C(=O)N(CO)C(=O)C2C31 (stereo not drawn) | 37.5 µM (inactive) | 53.1 µM (inactive) | – | 13.4 µM (inactive) | > 40.3 µM (inactive) | > 43.9 µM (inactive) | > 53.5 µM (inactive) | > 100 µM (inactive) | 21.1 µM (inactive) | – | – | 35.2 µM (inactive) | > 100 µM (inactive) | > 66.7 µM (inactive) | > 100 µM (inactive) | 31 µM (inactive) | 43.4 µM (inactive) | 50.6 µM (inactive) | > 81.7 µM (inactive) | –
